The text below walks through data of PMC7250897, “UDP-glucosyltransferase regulates grain size and abiotic stress tolerance associated with metabolic flux redirection in rice” (Nature Communications, 2020).

Changes are numbered by the printed parent chain.

The target in series [1] is T1, GSA1^WYJ (Oryza sativa, UniProt Q9AUV3, A349T).
T1 construct: gene Os03g0757500; full-length cDNA in pET21a (NdeI/NotI), E. coli BL21(DE3) pLysS, crude extract; WYJ allele A246, A349
T1 sequence (Q9AUV3 1-457 A349T): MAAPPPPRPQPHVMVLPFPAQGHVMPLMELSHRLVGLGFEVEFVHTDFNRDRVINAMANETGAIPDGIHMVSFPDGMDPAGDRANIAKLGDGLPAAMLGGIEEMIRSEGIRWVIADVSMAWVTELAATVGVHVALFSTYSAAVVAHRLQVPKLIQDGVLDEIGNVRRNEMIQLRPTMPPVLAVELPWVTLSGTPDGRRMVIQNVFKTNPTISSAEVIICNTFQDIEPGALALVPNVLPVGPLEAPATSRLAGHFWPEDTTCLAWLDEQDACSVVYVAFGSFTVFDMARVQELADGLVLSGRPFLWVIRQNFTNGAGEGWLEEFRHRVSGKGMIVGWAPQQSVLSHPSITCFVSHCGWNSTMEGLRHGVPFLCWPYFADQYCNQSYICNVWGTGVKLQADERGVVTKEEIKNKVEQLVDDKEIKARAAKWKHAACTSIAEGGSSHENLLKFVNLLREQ
Put plainly: HPLC glucosyltransferase assay, product peak area. The following applies: 250 μM acceptor, 1.5 mM UDP-glucose, 10 mM MgCl2, glycine-NaOH pH 8.6, 37 °C, 2 h.

Series [2] addresses T2, GSA1^WYJ (Oryza sativa, UniProt Q9AUV3, A246V).
T2 construct: gene Os03g0757500; full-length cDNA in pET21a (NdeI/NotI), E. coli BL21(DE3) pLysS, crude extract; WYJ allele A246, A349
T2 sequence (Q9AUV3 1-457 A246V): T1 sequence (Q9AUV3 1-457 A349T) with A246V, T349A
Put plainly: HPLC glucosyltransferase assay, product peak area. The following applies: 250 μM acceptor, 1.5 mM UDP-glucose, 10 mM MgCl2, glycine-NaOH pH 8.6, 37 °C, 2 h.

Substrate in series [3]: O=c1ccn([C@@H]2O[C@H](CO[P@@](=O)(O)O[P@@](=O)(O)O[C@H]3O[C@H](CO)[C@@H](O)[C@H](O)[C@H]3O)[C@@H](O)[C@H]2O)c(=O)[nH]1
Put plainly: HPLC glucosyltransferase assay, kinetics. It is filed as biochemical, Oryza sativa. The following applies: sugar donor, kaempferol as acceptor, 10 mM MgCl2, glycine-NaOH pH 8.6, 37 °C.

Substrate in series [4]: O=c1c(O)c(-c2ccc(O)cc2)oc2cc(O)cc(O)c12
The series can be described thus: cells, lysate or membranes. The following applies: sugar acceptor, UDP-glucose as donor, assay buffer 10 mM MgCl2, glycine-NaOH pH 8.6, 37 °C.

In the case of `O=c1c(O)c(-c2ccc(O)cc2)oc2cc(O)cc(O)c12` [kaempferol], the “HPLC glucosyltransferase assay, product peak area” value on GSA1^WYJ [1] was “the glucosyltransferase activity of GSA1^A349T was comparable to that of GSA1^CG14”; at GSA1^WYJ [2], “the glucosyltransferase activity of GSA1^A246V toward kaempferol and sinapyl alcohol was comparable”.
On to `COc1cc(/C=C/CO)cc(OC)c1O` [sinapyl alcohol], for which the “HPLC glucosyltransferase assay, product peak area” value on GSA1^WYJ [1] is “the glucosyltransferase activity of GSA1^A349T was comparable to that of GSA1^CG14”; at GSA1^WYJ [2], “the glucosyltransferase activity of GSA1^A246V toward kaempferol and sinapyl alcohol was comparable”.

B1: GSA1^WYJ (Oryza sativa Japonica Group) (protein)
chain: T1 sequence (Q9AUV3 1-457 A349T) with T349A
notes: full-length cDNA in pET21a (NdeI/NotI), E. coli BL21(DE3) pLysS, crude extract; WYJ allele A246, A349
Usually Km stands for the concentration of substrate that gives half-maximal velocity. With B1, the Km in series [3] was 51.06 ± 7.814 µM; in series [4], 25.54 ± 5.43 µM.
